# Patent publication US12060588B2, “Methods of editing DNA methylation” (Whitehead Institute for Biomedical Research, priority 2016, dated 2024)
# Test system: RHOXF2 promoter region
# Test: Comparison of dCas9- and TALE-based methylation editing, RHOXF2 promoter, bisulfite sequencing in HEK293T cells
# Type: cell-based
# Method: FIGS. 10A-10G depict comparison of TALE- and dCas9-based methylation editing. […] Transfection positive cell populations (cherry+) or (GFP+) were FACS sorted 48-hour post-transfection. Methylation levels of each individual CpG in the p16 promoter region were analyzed by bisulfite sequencing. Shown is the mean percentage±SD of two biological replicates with a total of 34 single colonies sequenced for dCas9-Dnmt3a and 31 single colonies sequenced for TALE-Dnmt3a. Red arrow indicates the position of p16 target gRNA, and purple arrow indicates the binding site for TALE-Dnmt3a. FIG. 10B depicts HEK293T cells were co-transfected with dCas9-Tet1 and one RHOXF2 target gRNA (with puro cassette) or TALE-Tet1 with a puro cassette expressing plasmid. Puromycin (2 ug/ml) was added to the culture medium to select for transfection positive cells. Cells were harvested after 2-day selection for analysis of methylation levels for individual CpGs in the RHOXF2 promoter region by bisulfite sequencing. Shown is the mean percentage±SD of two biological replicates with a total of 34 single colonies sequenced for dCas9-Tet1 and 38 single colonies sequenced for TALE-Tet1. Red arrow indicates the position of RHOXF2 target gRNA, and purple arrow indicates the binding site for […]. […]
substance,measurement,setting,value
"dCas9-Tet1: catalytically inactive Cas9 (dCas9) fused through NLS to the Tet1 catalytic domain, SEQ ID NO: 159; lentivirally expressed with gRNAs",region (effective range) of methylation decrease in the RHOXF2 promoter,CpGs with change of methylation greater than 10%,150 bp
same,average decrease of methylation in the RHOXF2 promoter,"one single gRNA or TALE at the same site, 2-day puromycin selection",28%
